Experimental data: paper PMC10633873 (ACS Omega, 2023)
Starred links: 1 amine or outer side, 2 acyl side, 3 side chain; linkers in the order of their positions; H or OH if unused. Positions of bridges follow the written chain, without caps; N, C: chain ends. Non-standard residues stand in square brackets, D forms with d. Residues, ends and D or L forms follow the SMILES beside them. Chains are numbered I, II in the order given. Actinocin(9to1) = Cc1c2oc3c(C)ccc(C(=O)[*:1])c3nc-2c(C(=O)[*:2])c(N)c1=O; NMeV = CN[C@H](C(=O)O)C(C)C; Sar = CNCC(=O)O

What was measured:
HEV-RdRp = biological target: T1, HEV-RdRp (Hepatitis E virus genotype 1, UniProt P33424); assay: HEV-RdRp enzyme activity; format: biochemical
T1 sequence (P33424 1207-1693 limits assumed): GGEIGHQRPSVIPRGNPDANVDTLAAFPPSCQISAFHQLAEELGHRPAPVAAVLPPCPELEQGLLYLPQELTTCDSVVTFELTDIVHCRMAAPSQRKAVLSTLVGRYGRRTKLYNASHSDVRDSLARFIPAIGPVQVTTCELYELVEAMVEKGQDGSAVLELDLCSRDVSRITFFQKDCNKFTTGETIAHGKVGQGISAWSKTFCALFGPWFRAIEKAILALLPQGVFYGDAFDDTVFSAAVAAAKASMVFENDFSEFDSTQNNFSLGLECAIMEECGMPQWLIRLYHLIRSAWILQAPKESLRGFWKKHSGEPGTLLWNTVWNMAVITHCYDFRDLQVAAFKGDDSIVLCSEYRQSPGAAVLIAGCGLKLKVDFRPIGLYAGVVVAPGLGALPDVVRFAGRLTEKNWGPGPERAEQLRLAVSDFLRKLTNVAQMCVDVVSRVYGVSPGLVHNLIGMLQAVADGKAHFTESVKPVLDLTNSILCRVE

HEV [1] = assay: Immunofluorescence assay of ORF2 expression in HEV RNA-transfected Huh7 cells; format: cell-based, Hepatitis E virus; details: Huh7, anti-HEV-ORF2, 4–5 days after transfection
[2] = Cell viability by MTT assay; format: cell-based; details: human, Huh7 cells
HEV [3] = assay: Effect on viral replication; format: cell-based, Hepatitis E virus; details: concentration and assay not stated
HEV genotype 3 (pSHEV-3) = assay: Viral RNA copy number by qPCR in Huh7 cells transfected with full-length HEV RNA; format: cell-based, Hepatitis E virus; details: 5 days post transfection, vs untreated cells

Compound | CC50 at 72 h [2] [µM] | IC50 (HEV-RdRp) [µM] | effect on polymerase activity of HEV-RdRp (HEV-RdRp) | also measured
Nc1nc2c(ncn2[C@@H]2O[C@H](COP(=O)(O)OP(=O)(O)OP(=O)(O)O)[C@@H](O)[C@H]2O)c(=O)[nH]1 [GTP] |  |  |  | Km (HEV-RdRp; GTP varied 0 to 8 mM, 5 μM enzyme, poly(C) 1 μg, Michaelis–Menten fit): 400 µM
Cc1c2oc3c(C)ccc(C(=O)N[C@@H]4C(=O)N[C@H](C(C)C)C(=O)N5CCC[C@H]5C(=O)N(C)CC(=O)N(C)[C@@H](C(C)C)C(=O)O[C@@H]4C)c3nc-2c(C(=O)N[C@@H]2C(=O)N[C@H](C(C)C)C(=O)N3CCC[C@H]3C(=O)N(C)CC(=O)N(C)[C@@H](C(C)C)C(=O)O[C@@H]2C)c(N)c1=O [actinomycin-D] (I: T[dV]P[Sar][NMeV] / II: T[dV]P[Sar][NMeV]; ester I:1-I:C, II:1-II:C; linker I:N-II:N via Actinocin(9to1)) |  |  |  | effect on enzyme activity of RdRp (HEV-RdRp; 5 μM actinomycin-D added to the reaction mixture): no significant effect
NC(=O)c1nc(F)c[nH]c1=O [favipiravir] | < 500 | 10.2 ± 4.9 | reduced the polymerase activity | effect on HEV replication (ORF2 mean fluorescence intensity) (HEV [1]): significantly inhibited HEV replication
CCc1cc(CC[C@]2(C3CCCC3)CC(O)=C(Cc3nc4nc(C)cc(C)n4n3)C(=O)O2)cc(CC)n1 [filibuvir] |  |  | reduced the polymerase activity | 
Nc1ccn([C@@H]2CS[C@H](CO)O2)c(=O)n1 [lamivudine] |  |  |  | effect on in vitro enzyme activity of HEV-RdRp (HEV-RdRp; concentration not given): inhibited; effect on viral replication (HEV [3]): did not show any effect
CCC(CC)COC(=O)[C@H](C)N[P@](=O)(OC[C@H]1O[C@@](C#N)(c2ccc3c(N)ncnn23)[C@H](O)[C@@H]1O)Oc1ccccc1 [remdesivir] |  |  | did not show any effect | 
NC(=O)c1ncn([C@@H]2O[C@H](CO)[C@@H](O)[C@H]2O)n1 [ribavirin] | < 100 | 3.5 ± 1.6 | reduced the polymerase activity | % reduction of viral RNA (HEV genotype 3 (pSHEV-3); 100 μM): ∼72%
CC(C)OC(=O)[C@H](C)N[P@](=O)(OC[C@H]1O[C@@H](n2ccc(=O)[nH]c2=O)[C@](C)(F)[C@@H]1O)Oc1ccccc1 [sofosbuvir] | < 125 | 5.2 ± 2.9 | reduced the polymerase activity | % reduction of viral RNA (HEV genotype 3 (pSHEV-3); 125 μM): ∼68%
